Where a SMILES comes first, the peptide text is derived from it. The star is where a group is joined. X1 = CCCN1C(=O)C2NC(c3ccc(OCC(=O)NCCNC(=O)C(N)CC(=O)*)cc3)=NC2N(CCC)C1=O; X2 = O=C(Cc1ccc(Nc2ncnc3c2ncn3[C@@H]2O[C@H](CO)[C@@H](O)[C@H]2O)cc1)*
Legend:
Substance-P receptor = Substance-P receptor (Rattus norvegicus, UniProt P14600); assay: Ability to inhibit the binding of [125I]physalaemin to the SP receptors in rat telencephalon slices
Adenosine receptor = Adenosine receptor (Rattus norvegicus, UniProt P29276+P25099+P30543+P28647); assay: Ability to inhibit the binding of [3H]N6-phenylisopropyl adenosine to adenosine receptor in rat cerebral cortex membranes; type: cell membranes, Membrane

Chain of Substance-P receptor (P14600 whole entry): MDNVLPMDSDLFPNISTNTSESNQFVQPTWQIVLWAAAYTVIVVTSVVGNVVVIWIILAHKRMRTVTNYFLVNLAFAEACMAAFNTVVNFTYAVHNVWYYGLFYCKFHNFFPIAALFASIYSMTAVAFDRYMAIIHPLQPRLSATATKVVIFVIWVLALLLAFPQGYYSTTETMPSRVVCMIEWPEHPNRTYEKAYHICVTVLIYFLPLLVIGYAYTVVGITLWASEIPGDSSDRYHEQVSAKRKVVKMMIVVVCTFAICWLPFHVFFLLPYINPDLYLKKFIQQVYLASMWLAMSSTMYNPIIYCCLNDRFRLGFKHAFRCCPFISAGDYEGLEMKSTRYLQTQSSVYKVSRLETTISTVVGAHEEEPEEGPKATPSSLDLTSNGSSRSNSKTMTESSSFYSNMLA

Compound | Ki (Substance-P receptor) | Ki (Adenosine receptor)
CCCN1C(=O)C2NC(c3ccc(OCC(=O)NCCN)cc3)=NC2N(CCC)C1=O (stereo not given) | > 10000 nM | 1.2 nM
CCCN1C(=O)C2NC(c3ccc(OCC(=O)NCCNC(=O)CN)cc3)=NC2N(CCC)C1=O (stereo not given) | > 10000 nM | 2.1 nM
O=C(O)Cc1ccc(Nc2ncnc3c2ncn3C2O[C@H](CO)[C@@H](O)[C@H]2O)cc1 (stereo not given in full) |  | 210 nM
CSCC[C@@H](NC(=O)[C@H](CC(C)C)NC(=O)CNC(=O)[C@H](Cc1ccccc1)NC(=O)[C@@H](N)Cc1ccccc1)C(N)=O |  | > 30000 nM
CNC(=O)Cc1ccc(Nc2ncnc3c2ncn3C2O[C@H](CO)[C@@H](O)[C@H]2O)cc1 (stereo not given in full) | > 10000 nM | 
CSCC[C@H](NC(=O)[C@H](CC(C)C)NC(=O)CNC(=O)[C@H](Cc1ccccc1)NC(=O)[C@H](Cc1ccccc1)NC(=O)Cc1ccc(Nc2ncnc3c2ncn3[C@@H]2O[C@H](CO)[C@@H](O)[C@H]2O)cc1)C(N)=O (X2-FFGLM-NH2) | 2000 nM | 16 nM
CCCN1C(=O)C2NC(c3ccc(OCC(=O)NCCNC(=O)C(N)CC(=O)N[C@@H](Cc4ccccc4)C(=O)N[C@@H](Cc4ccccc4)C(=O)NCC(=O)N[C@@H](CC(C)C)C(=O)N[C@@H](CCSC)C(N)=O)cc3)=NC2N(CCC)C1=O (stereo not given in full) (X1-FFGLM-NH2) | 300 nM | 35 nM
CSCC[C@H](NC(=O)[C@H](CC(C)C)NC(=O)CNC(=O)[C@H](Cc1ccccc1)NC(=O)[C@@H](N)Cc1ccccc1)C(N)=O | > 10000 nM | 
CSCC[C@@H](NC(=O)[C@H](CC(C)C)NC(=O)CNC(=O)[C@H](Cc1ccccc1)NC(=O)[C@H](Cc1ccccc1)NC(C)=O)C(N)=O |  | > 30000 nM
CCCN1C(=O)C2NC(c3ccc(OCC(=O)NCCNC(=O)C(N)CC(=O)N[C@@H](Cc4ccccc4)C(=O)N[C@@H](Cc4ccccc4)C(=O)NCC(N)=O)cc3)=NC2N(CCC)C1=O (stereo not given in full) | > 10000 nM | 30 nM

Continued, values first:

Ki (Substance-P receptor) | Ki (Adenosine receptor) | Compound
450 nM |  | H-QFFGLM-NH2
180 nM |  | H-QQFFGLM-NH2
 | 4.3 nM | CCCN1C(=O)C2NC(c3ccc(OCC(=O)NCCNC(=O)C(N)CC(N)=O)cc3)=NC2N(CCC)C1=O (stereo not given)
 | > 30000 nM | CSCC[C@H](NC(=O)[C@H](CC(C)C)NC(=O)CNC(=O)[C@H](Cc1ccccc1)NC(=O)[C@H](Cc1ccccc1)NC(=O)[C@H](CCC(N)=O)NC(=O)[C@H](CCC(N)=O)NC(=O)[C@@H]1CCCN1C(=O)[C@H](CCCCN)NC(=O)[C@@H]1CCCN1C(=O)[C@@H](N)CCCN=C(N)N)C(N)=O [SUBSTANCE P]
> 10000 nM |  | CSCC[C@H](NC(=O)[C@H](CC(C)C)NC(=O)CNC(=O)[C@H](Cc1ccccc1)NC(=O)[C@H](Cc1ccccc1)NC(C)=O)C(N)=O
